Earlier results in patent US11930809B2, “Preservation of biomaterial properties and methods of storing” (LIFELINE SCIENTIFIC, INC., priority 2012, dated 2024).

Assays:
[1] = tested on: chondrocytes in articular cartilage; details: conventional cryopreservation by freezing in a solution that includes DMSO
[2] = early Phase clinical studies

C[S+](C)[O-] [DMSO, dimethyl sulfoxide]
death of chondrocytes in articular cartilage [1]: 80-100%

COC(=O)C1=CO[C@@H](O)[C@@H]2C(CO)=CC[C@H]12 [genipin]
expression of TIMP-1 (TIMP-1): upregulate the expression of TIMP-1

PCK3145: synthetic peptide corresponding to amino acids 31-45 of prostate secretory protein 94 (EWQTDNCETCTCYET; UniProt P08118 51-65, looked up, fragment)
tolerability [2]: well tolerated
